Measurements reported in the supplement of paper PMC10331698.
± gives the standard deviation of the averaged measurements.

What was measured:
Test in all cases: level (log10 ratio to DMSO vehicle control); higher = higher biomarker level / cell amount than vehicle control
[1] = compound: O=S(=O)(O)C(F)(F)C(F)(F)C(F)(F)C(F)(F)C(F)(F)C(F)(F)C(F)(F)C(F)(F)C(F)(F)C(F)(F)F [Sodium perfluorodecanesulfonate]; settings: in DMSO
Description: (§1)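 BioMAP Diversity Plus panel of 12 human primary cell co-culture systems (3C, 4H, LPS, SAg, BT, BF4T, BE3C, CASM3C, HDF3CGF, KF3CT, MyoF, Mphg). Compounds were added 1 h before stimulation and left for 24 h (MyoF 48 h; BT 72 h for soluble read-outs or 6 d for IgG). Biomarkers were read by ELISA, cytotoxicity by SRB, PBMC viability and proliferation by Alamar Blue. Each well value was divided by the mean of 8 DMSO control wells on the same plate and log10 transformed; duplicate blinded samples were tested at 4 concentrations.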

[2] = compound: FC(F)(F)C(F)(F)C(F)(F)CC1CO1 [1H,1H-Heptafluorobutyl epoxide]; settings: in DMSO
Description: as §1

[3] = compound: O=C(O)C=CC(F)(C(F)(F)F)C(F)(F)F [3-(Perfluoroisopropyl)-2-propenoic acid]; settings: in DMSO
Description: as §1

Heptafluorobutyl iodide = compound: FC(F)(F)C(F)(F)C(F)(F)CI [Heptafluorobutyl iodide]; settings: in DMSO
Description: as §1

[4] = compound: O=C(O)C(F)(F)C(F)(F)C(F)(F)C(F)(F)C(F)(F)C(F)(F)C(F)(F)C(F)(F)C(F)(F)C(F)F [11-H-Perfluoroundecanoic acid]; settings: in DMSO
Description: as §1

[5] = compound: O=S(=O)(O)CCC(F)(F)C(F)(F)C(F)(F)C(F)(F)C(F)(F)C(F)(F)F [6:2 Fluorotelomer sulfonic acid]; settings: in DMSO
Description: as §1

[6] = compound: C=C(C)C(=O)OCCC(F)(F)C(F)(F)C(F)(F)C(F)(F)C(F)(F)C(F)(F)F [6:2 Fluorotelomer methacrylate]; settings: in DMSO
Description: as §1

Hexafluoroamylene glycol = compound: OCC(F)(F)C(F)(F)C(F)(F)CO [Hexafluoroamylene glycol]; settings: in DMSO
Description: as §1

[7] = compound: O=S(=O)(Cl)C(F)(F)C(F)(F)C(F)(F)C(F)(F)C(F)(F)C(F)(F)C(F)(F)C(F)(F)F [Perfluoro-1-octanesulfonyl chloride]; settings: in DMSO
Description: as §1

Octafluoroadipamide = compound: NC(=O)C(F)(F)C(F)(F)C(F)(F)C(F)(F)C(N)=O [Octafluoroadipamide]; settings: in DMSO
Description: as §1

[8] = compound: C=CC(=O)OCC(F)(F)C(F)(F)C(F)(F)COC(=O)C=C [1H,1H,5H,5H-Perfluoro-1,5-pentanediol diacrylate]; settings: 6700 nM; in DMSO
Description: as §1

[9] = compound: NS(=O)(=O)C(F)(F)C(F)(F)C(F)(F)C(F)(F)C(F)(F)C(F)(F)F [Perfluorohexanesulfonamide]; settings: in DMSO
Description: as §1

[10] = compound: FC(F)(F)C(F)(F)C(F)(F)C(F)(F)C(F)(F)C(F)(F)CC1CO1 [3-(Perfluorohexyl)-1,2-epoxypropane]; settings: in DMSO
Description: as §1

Nonafluoropentanamide = compound: NC(=O)C(F)(F)C(F)(F)C(F)(F)C(F)(F)F [Nonafluoropentanamide]; settings: in DMSO
Description: as §1

[11] = compound: O=S(=O)(F)C(F)(F)C(F)(F)C(F)(F)C(F)(F)C(F)(F)C(F)(F)C(F)(F)C(F)(F)F [Perfluorooctanesulfonyl fluoride]; settings: in DMSO
Description: as §1

[12] = compound: COC(=O)C(F)(F)C(F)(F)OC(F)(C(F)(F)F)C(F)(F)OC(F)=C(F)F [Methyl perfluoro(3-(1-ethenyloxypropan-2-yloxy)propanoate)]; settings: in DMSO
Description: as §1

[13] = compound: NC(=O)C(F)(F)C(F)(F)C(F)(F)C(F)F; settings: in DMSO
Description: as §1

[14] = compound: FC(F)(F)C(F)(F)CNCC(F)(F)C(F)(F)F [Bis(1H,1H-perfluoropropyl)amine]; settings: in DMSO
Description: as §1

[15] = compound: FC(F)(F)C(F)(F)C(F)(F)C(F)(F)C(F)(F)C(F)(F)C(F)(F)I [1-Iodopentadecafluoroheptane]; settings: in DMSO
Description: as §1

CASM3C:LDLR was tested, and the “level (log10)” value ([1]; 1500 nM) was 0.0155 ± 0.028, the “level (log10)” value ([1]; 4400 nM) was -0.015 and the “level (log10)” value ([1]; 13000 nM) was -0.0425 ± 0.018. For the same test system, the “level (log10)” value ([1]; 40000 nM) was -0.0055 ± 0.035, the “level (log10)” value ([2]; 6700 nM) was -0.007 ± 0.0028 and the “level (log10)” value ([2]; 20000 nM) was -0.015 ± 0.0057. The “level (log10)” value ([2]; 60000 nM) was 0.002 ± 0.0099, the “level (log10)” value ([3]; 6700 nM) was -0.006 ± 0.017 and the “level (log10)” value ([3]; 20000 nM) was -0.0045 ± 0.00071. The “level (log10)” value ([3]; 60000 nM) was 0.008 ± 0.017, the “level (log10)” value (Heptafluorobutyl iodide; 6700 nM) was -0.0015 ± 0.00071 and the “level (log10)” value (Heptafluorobutyl iodide; 20000 nM) was 0.0025 ± 0.005. The “level (log10)” value (Heptafluorobutyl iodide; 60000 nM) was 0.0145 ± 0.015, the “level (log10)” value ([4]; 6700 nM) was -0.0025 ± 0.005 and the “level (log10)” value ([4]; 20000 nM) was -0.006 ± 0.0099. The “level (log10)” value ([5]; 6700 nM) was 0.009 ± 0.0057, the “level (log10)” value ([5]; 20000 nM) was -0.001 ± 0.018 and the “level (log10)” value ([5]; 60000 nM) was 0.011 ± 0.04. For the same test system, the “level (log10)” value ([6]; 6700 nM) was -0.0185 ± 0.026, the “level (log10)” value ([6]; 20000 nM) was -0.001 ± 0.025 and the “level (log10)” value ([6]; 60000 nM) was -0.016 ± 0.0099. For the same test system, the “level (log10)” value (Hexafluoroamylene glycol; 6700 nM) was -0.007 ± 0.013, the “level (log10)” value (Hexafluoroamylene glycol; 20000 nM) was -0.0095 ± 0.019 and the “level (log10)” value (Hexafluoroamylene glycol; 60000 nM) was 0.024 ± 0.037. For the same test system, the “level (log10)” value ([7]; 6700 nM) was -0.0105 ± 0.005, the “level (log10)” value ([7]; 20000 nM) was -0.011 ± 0.017 and the “level (log10)” value ([7]; 60000 nM) was 0.0095 ± 0.037. The “level (log10)” value (Octafluoroadipamide; 6700 nM) was -0.0045 ± 0.0064, the “level (log10)” value (Octafluoroadipamide; 20000 nM) was -0.005 ± 0.016 and the “level (log10)” value (Octafluoroadipamide; 60000 nM) was 0.007 ± 0.0085. For the same test system, the “level (log10)” value [8] was -0.004 ± 0.0014, the “level (log10)” value ([9]; 6700 nM) was -0.003 ± 0.014 and the “level (log10)” value ([9]; 20000 nM) was -0.0105 ± 0.005. For the same test system, the “level (log10)” value ([9]; 60000 nM) was -0.04 ± 0.011, the “level (log10)” value ([10]; 6700 nM) was -0.003 ± 0.02 and the “level (log10)” value ([10]; 20000 nM) was 0.0105 ± 0.012. For the same test system, the “level (log10)” value ([10]; 60000 nM) was 0.025 ± 0.014, the “level (log10)” value (Nonafluoropentanamide; 6700 nM) was 0.0055 ± 0.059 and the “level (log10)” value (Nonafluoropentanamide; 20000 nM) was -0.035 ± 0.0028. The “level (log10)” value (Nonafluoropentanamide; 60000 nM) was 0.021 ± 0.072, the “level (log10)” value ([11]; 6700 nM) was 0.0035 ± 0.0021 and the “level (log10)” value ([11]; 20000 nM) was 0.0015 ± 0.012. The “level (log10)” value ([11]; 60000 nM) was 0.0055 ± 0.023, the “level (log10)” value ([12]; 6700 nM) was -0.0035 ± 0.005 and the “level (log10)” value ([12]; 20000 nM) was 0.0085 ± 0.033. The “level (log10)” value ([13]; 6700 nM) was -0.008, the “level (log10)” value ([13]; 20000 nM) was -0.006 ± 0.024 and the “level (log10)” value ([13]; 60000 nM) was 0.031 ± 0.042. The “level (log10)” value ([14]; 6700 nM) was -0.005 ± 0.0099, the “level (log10)” value ([14]; 20000 nM) was -0.0065 ± 0.0021 and the “level (log10)” value ([14]; 60000 nM) was -0.001 ± 0.025. For the same test system, the “level (log10)” value ([15]; 6700 nM) was -0.002 ± 0.013 and the “level (log10)” value ([15]; 20000 nM) was -0.014.
With CASM3C:PAI-I the “level (log10)” value ([1]; 1500 nM) was -0.001 ± 0.0028, the “level (log10)” value ([1]; 4400 nM) was -0.0165 ± 0.0064 and the “level (log10)” value ([1]; 13000 nM) was 0.009 ± 0.0057. The “level (log10)” value ([1]; 40000 nM) was -0.0055 ± 0.021, the “level (log10)” value ([2]; 6700 nM) was -0.0045 ± 0.0092 and the “level (log10)” value ([2]; 20000 nM) was 0 ± 0.0057. The “level (log10)” value ([2]; 60000 nM) was 0.005 ± 0.017, the “level (log10)” value ([3]; 6700 nM) was 0.006 ± 0.0028 and the “level (log10)” value ([3]; 20000 nM) was 0 ± 0.0057. For the same test system, the “level (log10)” value ([3]; 60000 nM) was 0.012 ± 0.0057, the “level (log10)” value (Heptafluorobutyl iodide; 6700 nM) was -0.009 ± 0.0085 and the “level (log10)” value (Heptafluorobutyl iodide; 20000 nM) was -0.0035 ± 0.005. For the same test system, the “level (log10)” value (Heptafluorobutyl iodide; 60000 nM) was -0.011 ± 0.0057, the “level (log10)” value ([4]; 6700 nM) was 0.001 ± 0.0057 and the “level (log10)” value ([4]; 20000 nM) was 0.006 ± 0.0028. The “level (log10)” value ([5]; 6700 nM) was -0.001 ± 0.023, the “level (log10)” value ([5]; 20000 nM) was -0.0025 ± 0.015 and the “level (log10)” value ([5]; 60000 nM) was 0 ± 0.0099. For the same test system, the “level (log10)” value ([6]; 6700 nM) was -0.01 ± 0.013, the “level (log10)” value ([6]; 20000 nM) was -0.0055 ± 0.0021 and the “level (log10)” value ([6]; 60000 nM) was 0.007 ± 0.013. For the same test system, the “level (log10)” value (Hexafluoroamylene glycol; 6700 nM) was -0.0035 ± 0.015, the “level (log10)” value (Hexafluoroamylene glycol; 20000 nM) was 0.017 ± 0.031 and the “level (log10)” value (Hexafluoroamylene glycol; 60000 nM) was 0.006 ± 0.0085. The “level (log10)” value ([7]; 6700 nM) was -0.003 ± 0.0028, the “level (log10)” value ([7]; 20000 nM) was -0.0095 ± 0.00071 and the “level (log10)” value ([7]; 60000 nM) was 0.0005 ± 0.011. The “level (log10)” value (Octafluoroadipamide; 6700 nM) was 0.0005 ± 0.005, the “level (log10)” value (Octafluoroadipamide; 20000 nM) was -0.0085 ± 0.012 and the “level (log10)” value (Octafluoroadipamide; 60000 nM) was 0.0045 ± 0.0092. The “level (log10)” value [8] was 0.002 ± 0.0042, the “level (log10)” value ([9]; 6700 nM) was -0.0045 ± 0.011 and the “level (log10)” value ([9]; 20000 nM) was -0.008 ± 0.0042. The “level (log10)” value ([9]; 60000 nM) was 0.004 ± 0.0071, the “level (log10)” value ([10]; 6700 nM) was 0.0055 ± 0.005 and the “level (log10)” value ([10]; 20000 nM) was 0.002 ± 0.0085. The “level (log10)” value ([10]; 60000 nM) was 0.017 ± 0.0042, the “level (log10)” value (Nonafluoropentanamide; 6700 nM) was -0.008 ± 0.024 and the “level (log10)” value (Nonafluoropentanamide; 20000 nM) was -0.0065 ± 0.0064. The “level (log10)” value (Nonafluoropentanamide; 60000 nM) was 0.0105 ± 0.0064, the “level (log10)” value ([11]; 6700 nM) was 0.005 ± 0.0071 and the “level (log10)” value ([11]; 20000 nM) was -0.005 ± 0.0028. For the same test system, the “level (log10)” value ([11]; 60000 nM) was 0.0045 ± 0.0035, the “level (log10)” value ([12]; 6700 nM) was -0.0015 ± 0.0035 and the “level (log10)” value ([12]; 20000 nM) was -0.0005 ± 0.012. For the same test system, the “level (log10)” value ([13]; 6700 nM) was -0.005 ± 0.021, the “level (log10)” value ([13]; 20000 nM) was -0.003 ± 0.0085 and the “level (log10)” value ([13]; 60000 nM) was -0.008 ± 0.0099. For the same test system, the “level (log10)” value ([14]; 6700 nM) was -0.0075 ± 0.0078, the “level (log10)” value ([14]; 20000 nM) was -0.009 ± 0.0042 and the “level (log10)” value ([14]; 60000 nM) was 0.005 ± 0.025. The “level (log10)” value ([15]; 6700 nM) was -0.013 ± 0.011 and the “level (log10)” value ([15]; 20000 nM) was 0.0075 ± 0.011.
